Data on 10 compounds can be found in PubChem BioAssay (NCI).

Common to all, as to experiment: inhibition of tumour cell growth, NCI panel, 48 h
Assay [1] has as its system HOP-62 NSCLC.
Assay [2] has as its system M14 melanoma.
For assay [3], the system named is MOLT-4 leukemia.
The subject of assay [4] is OVCAR-3 ovarian.
Assay [5] relates to RXF 393 renal.
For assay [6], the system named is SF-268 CNS.
For assay [7], the system named is SF-295 CNS.
Assay [8] deals with SW-620 colon.
Assay [9] relates to T-47D breast.
Assay [10] has as its system COLO 205 colon.

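A five-concentration, 48-hour dose response in 96-well plates underlies each endpoint, interpolated linearly between surrounding concentrations. Here, GI50 denotes the concentration required for 50% inhibition of growth. Definition used: TGI = concentration required for complete inhibition of growth.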 Where only a bound is given, the exact number is not on record here.

On to `CC(=O)c1c(Nc2ccc(F)c(F)c2F)[nH]c2c(F)cc(F)cc2c1=O`, for which the GI50 was 0.335 µM in [1]; 0.352 µM in assay [2]; 0.425 µM in [3]; 0.311 µM in assay [4]; 0.3 µM in assay [5]; 0.341 µM in [6]. Moreover, the GI50 is 0.308 µM in [7], 0.346 µM in [8] and 0.25 µM in assay [9]. In addition, the TGI was found to be 8.18 µM in assay [1]; 4.06 µM in assay [2]; 11.6 µM in assay [4]; 2.41 µM in assay [5]; 43.1 µM in assay [6]; 1.5 µM in assay [7]. The compound also yielded a TGI in assay [8] of 18.7 µM.
As for `Cc1cc2c(-c3nc4ccccn4c3NC34CC5CC(CC(C5)C3)C4)c(O)c(O)cc2c(O)c1-c1c(C)cc2c(-c3nc4ccccn4c3NC34CC5CC(CC(C5)C3)C4)c(O)c(O)cc2c1O`, the GI50 was 0.626 µM in [10]; 0.724 µM in [1]; 0.11 µM in [3]; 0.617 µM in assay [4]; 0.464 µM in assay [5]; 0.239 µM in assay [6]. Moreover, the GI50 in [7] was 0.262 µM; in assay [8], 0.881 µM; in assay [9] it was 0.187 µM. Also, the TGI was 4.77 µM in [10]; greater than 25 µM in assay [1]; 10.4 µM in [3]; 8.3 µM in assay [4]; 2.63 µM in assay [5]; 6.78 µM in assay [6]. Moreover, the values for the TGI in assay [7], in [8] and in assay [9] were 2.78 µM, greater than 25 µM and 2.49 µM, respectively.
With `CC[C@H](C)[C@H](NC(=O)N[C@@H](C)c1ccccc1)C(=O)N(C)[C@H](C[C@@H](OC(C)=O)c1nc(C(=O)N[C@@H](Cc2ccccc2)C[C@H](C)C(=O)OC)cs1)C(C)C`, the GI50 is 20.1 µM in assay [10]; 33 µM in assay [1]; 15.9 µM in assay [2]; 16.9 µM in assay [4]; 13.9 µM in assay [5]; 29.7 µM in assay [6]. Further, the GI50 is 25.6 µM in assay [7], 26.4 µM in assay [8] and 97.9 µM in [9]. The TGI is 57.1 µM in assay [10]; greater than 100 µM in assay [1]; 46.7 µM in assay [2]; 42.2 µM in assay [4]; 57.3 µM in assay [5]; greater than 100 µM in assay [6]. The TGI in assay [7], in assay [8] and in [9] was greater than 100 µM throughout.
`Cc1ccc(NCCNCC(O)CO)c2c(=O)c3ccccc3sc12` (stereo not drawn): the GI50 is 1.32 µM in assay [10]; 1.35 µM in assay [1]; 1.55 µM in assay [2]; 2.15 µM in assay [4]; 1.43 µM in assay [5]; 1.81 µM in assay [6]. In addition, the GI50 in assay [7] was 1.52 µM; in [8] it was 1.04 µM; in assay [9], 1.79 µM. Besides, the TGI was 3.02 µM in assay [10]; 2.95 µM in [1]; 3.13 µM in assay [2]; 4.7 µM in assay [4]; 2.89 µM in assay [5]; 3.96 µM in assay [6]. For the same compound, the results for the TGI in assay [7], in assay [8] and in assay [9] were 3.09 µM, 2.57 µM and 4.08 µM, respectively.
As to `COc1cc(/C=C2\C(=O)Nc3ccc(Br)cc32)cc(OC)c1OC`, the GI50 is 8.18 µM in assay [10]; 20.3 µM in assay [1]; 15.7 µM in [2]; 8.51 µM in assay [3]; 5.59 µM in assay [4]; 36.9 µM in [6]. For the same compound, the GI50 is 12 µM in assay [7], 3.74 µM in [8] and 3.06 µM in [9]. Further, the TGI in [10] is greater than 100 µM; in assay [1] it was 81.4 µM; in assay [2] it was greater than 100 µM; in [3] it was greater than 100 µM; in assay [4] it was greater than 56.9 µM; in assay [6] it was greater than 100 µM. Moreover, the TGI in assay [7] is 68.9 µM; in [8] it was greater than 100 µM; in assay [9], greater than 100 µM.
In the case of `O=c1c2ccccc2c(=O)c2c1sc1c(=O)c3ccc(O)cc3c(=O)c12`, the GI50 in assay [1] was 0.15 µM; in assay [2] it was 0.0976 µM; in assay [3], 2.17 µM; in [4], 0.263 µM; in assay [5], 1.63 µM; in [6], 1.04 µM. Besides, the GI50 in assay [7] is 0.178 µM; in assay [8] it was 0.436 µM; in assay [9], 2.04 µM. In addition, the TGI stood at 0.285 µM in assay [1]; 0.219 µM in assay [2]; 8.07 µM in assay [3]; 0.924 µM in assay [4]; 4.3 µM in assay [5]; 7.62 µM in assay [6]. Further, the TGI was 0.361 µM in assay [7], 1.56 µM in assay [8] and 6.3 µM in [9].
On to `Nn1nnc2ccccc21`, for which the TGI in assay [10], in assay [1], in [2], in [3], in assay [4] and in assay [6] was greater than 100 µM each time. The TGI in [7], in assay [8] and in assay [9] was greater than 100 µM each time.
With `O=C(/C(=N/Nc1cn[nH]c(=O)c1Cl)c1ccccc1)c1ccccc1`, the TGI was 49.4 µM in [10]; greater than 100 µM in [1]; greater than 100 µM in assay [2]; 97.2 µM in [3]; 56.2 µM in [4]; 47.3 µM in assay [5]. Moreover, the figures for the TGI in assay [7], in [8] and in assay [9] were greater than 100 µM, greater than 100 µM and 62.7 µM, respectively.
On to `NC(=O)c1ncn(C2OC(CO)C(O)C2O)c1NC(=S)NC(=O)c1ccccc1` (stereo not drawn), for which the TGI in assay [10], in assay [1], in assay [2], in assay [3], in assay [4] and in assay [5] was greater than 100 µM in each case. Besides, the TGI in assay [6], in [7] and in assay [8] was greater than 100 µM in each case.
As to `O=c1ncccn1C1OC(CO)C(O)C1F` (stereo not drawn), the TGI in assay [10], in [1], in [2], in [3], in assay [4] and in assay [5] was greater than 100 µM each time. Also, the TGI in assay [6], in [7] and in [8] was greater than 100 µM throughout. Besides, the GI50 in assay [8] was greater than 100 µM.
